Measurements taken from patent publication US8580811B2 (Ligand Pharmaceuticals Incorporated, priority 2005, dated 2013).

What follows are compounds tested against T1, human AR (Homo sapiens, UniProt P10275) (assay: IR Binding Assay: whole cell competitive binding of test compounds against 3H-DHT in COS-1 cells transfected with pRShAR). Details: not given.
T1 construct: expressed in transfected cells; host or cells: COS-1 cells
T1 sequence (P10275 1-920): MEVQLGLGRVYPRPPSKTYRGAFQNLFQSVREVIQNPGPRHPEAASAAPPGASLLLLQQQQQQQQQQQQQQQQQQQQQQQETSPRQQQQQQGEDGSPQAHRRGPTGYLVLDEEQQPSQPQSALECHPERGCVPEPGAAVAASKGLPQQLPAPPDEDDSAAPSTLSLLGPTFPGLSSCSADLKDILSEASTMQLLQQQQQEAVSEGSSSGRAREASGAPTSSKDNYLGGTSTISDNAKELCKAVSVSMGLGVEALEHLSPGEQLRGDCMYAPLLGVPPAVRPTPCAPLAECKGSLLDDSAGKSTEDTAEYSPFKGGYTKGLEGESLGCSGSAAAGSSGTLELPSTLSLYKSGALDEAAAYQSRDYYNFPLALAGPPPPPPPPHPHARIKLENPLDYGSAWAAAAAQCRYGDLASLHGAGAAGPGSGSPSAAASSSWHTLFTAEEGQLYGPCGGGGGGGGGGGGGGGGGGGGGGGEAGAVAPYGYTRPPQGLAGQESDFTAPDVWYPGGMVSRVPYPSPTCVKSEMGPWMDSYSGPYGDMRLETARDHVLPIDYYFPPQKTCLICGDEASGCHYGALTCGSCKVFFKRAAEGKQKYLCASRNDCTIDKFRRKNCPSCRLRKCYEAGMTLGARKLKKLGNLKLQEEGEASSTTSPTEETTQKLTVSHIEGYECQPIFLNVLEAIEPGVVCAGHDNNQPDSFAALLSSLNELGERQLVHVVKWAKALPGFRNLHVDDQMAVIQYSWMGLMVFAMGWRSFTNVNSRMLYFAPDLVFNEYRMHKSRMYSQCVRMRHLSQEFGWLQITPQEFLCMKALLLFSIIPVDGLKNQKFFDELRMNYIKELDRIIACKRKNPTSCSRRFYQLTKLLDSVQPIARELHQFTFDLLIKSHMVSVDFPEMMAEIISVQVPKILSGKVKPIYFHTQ
Description: For the whole cell binding assay, COS-1 cells in 96-well microtiter plates including DMEM-10% FBS were transfected as described above with the following plasmid DNA: pRShAR (2 ng/well), pRS-β-Gal (50 ng/well) and pGEM (48 ng/well). Six hours after transfection, media was removed, the cells were washed with PBS and fresh media was added. The next day, the media was changed to DMEM-serum free to remove any endogenous ligand that might be complexed with the receptor in the cells.
After 24 hours in serum-free media, either a saturation analysis to determine the Kd for tritiated dihydrotestosterone (^3H-DHT) on human AR or a competitive binding assay to evaluate the ability of test compounds to compete with ^3H-DHT for AR was performed. […] For the competitive binding assay, media including 1 nM ^3H-DHT and test compounds in concentrations ranging from 10^−10 to 10^−6 M were added to the cells. Three replicates were used for each sample. After three hours at 37° C., an aliquot of the total binding media at each concentration of ^3H-DHT was removed to estimate the amount of free ^3H-DHT. The remaining media was removed, the cells were washed three times with PBS to remove unbound ligand, and cells were lysed with a Triton X-100-based buffer. The lysates were assayed for amount of bound ^3H-DHT and β-Gal activity using a scintillation counter or spectrophotometer, respectively.
For the saturation analyses, the difference between the total binding and the nonspecific binding, normalized by the β-Gal rate, was defined as specific binding. The specific binding was evaluated by Scatchard analysis to determine the Kd for ^3H-DHT. See e.g., D. Rodbard, “Mathematics and statistics of ligand assays: an illustrated guide” In: J. Langon and J. J. Clapp, eds., Ligand Assay, Masson Publishing U.S.A., Inc., New York, pp. 45-99, (1981), the disclosure of which is herein incorporated by reference. For the competition studies, the data was plotted as the amount of ^3H-DHT (% of control in the absence of test compound) remaining over the range of the dose-response curve for a given compound. […] The Ki values were determined by application of the Cheng-Prusoff equation to the IC50 values, where:
[formula] After correcting for non-specific binding, IC50 values were determined. […] The IC50 value was determined graphically from a log-logit plot of the data. The Ki values were determined by application of the Cheng-Prusoff equation to the IC50 values, the labeled ligand concentration and the Kd of the labeled ligand. see e.g., Cheng, Y. C. and Prusoff, W. H. Biochem. Pharmacol. 22:3099 (1973).
Cc1c(-c2ccccn2)n(CC(F)(F)C(F)(F)F)c2ccc3[nH]c(=O)cc(Cl)c3c12 [Compound 265, 9-Chloro-1-methyl-3-(2,2,3,3,3-pentafluoropropyl)-2-(2-pyridyl)-3,6-dihydro-pyrrolo[3,2-f]quinolin-7-one] was tested, and the Ki was < 5 nM. In the case of CCc1c(C)c2c3c(C(F)(F)F)cc(=O)[nH]c3ccc2n1CCC(F)(F)F [Compound 226, 2-Ethyl-1-methyl-9-trifluoromethyl-3-(3,3,3-trifluoropropyl)-3,6-dihydro-pyrrolo[3,2-f]-quinolin-7-one], the Ki is reported as < 5 nM. For CC1c2c(ccc3[nH]c(=O)cc(Cl)c23)N(CCO)C1C (racemic) [Compound 139, (±)-9-Chloro-1,2-dimethyl-3-(2-hydroxyethyl)-1,2,3,6-tetrahydro-pyrrolo[3,2-f]-quinolin-7-one], the Ki was > 10 nM. Cc1c(-c2ccc(F)cc2F)[nH]c2ccc3[nH]c(=O)cc(Cl)c3c12 [Compound 117, 9-Chloro-2-(2,4-difluorophenyl)-1-methyl-3,6-dihydro-pyrrolo[3,2-f]quinolin-7-one] was tested, and the Ki was < 5 nM. With Cc1[nH]c2ccc3[nH]c(=O)cc(Cl)c3c2c1CC(=O)O [Compound 122, (9-Chloro-2-methyl-7-oxo-6,7-dihydro-3H-pyrrolo[3,2-f]quinolin-1-yl)-acetic acid] the Ki was < 5 nM. For Cc1c(-c2cccnc2)n(CC(F)(F)C(F)(F)F)c2ccc3[nH]c(=O)cc(Cl)c3c12 [Compound 264, 9-Chloro-1-methyl-3-(2,2,3,3,3-pentafluoropropyl)-2-(3-pyridyl)-3,6-dihydro-pyrrolo[3,2-f]quinolin-7-one], the Ki was < 5 nM. In the case of Cc1c(C=O)c2c3c(Cl)cc(=O)[nH]c3ccc2n1CCO [Compound 192, 9-Chloro-3-(2-hydroxy-ethyl)-2-methyl-7-oxo-6,7-dihydro-3H-pyrrolo[3,2-f]quinoline-1-carbaldehyde], the Ki is reported as > 10 nM. With Cc1c(-c2ccccc2)[nH]c2ccc3[nH]c(=O)cc(Cl)c3c12 [Compound 110, 9-Chloro-1-methyl-2-phenyl-3,6-dihydro-pyrrolo[3,2-f]quinolin-7-one] the Ki was < 5 nM. For CC1c2c(ccc3[nH]c(=O)cc(Cl)c23)N(CC(F)(F)F)C1c1ccccc1F (racemic) [Compound 156, (±)-9-Chloro-2-(2-fluorophenyl)-1-methyl-3-(2,2,2-trifluoroethyl)-1,2,3,6-tetrahydro-pyrrolo[3,2-f]quinolin-7-one], the Ki was < 5 nM. CCC1c2c(ccc3[nH]c(=O)cc(Cl)c23)N(CC(F)(F)F)C1C (racemic) [Compound 129, (±)-9-Chloro-1-ethyl-2-methyl-3-(2,2,2-trifluoro-ethyl)-1,2,3,6-tetrahydropyrrolo[3,2-f]-quinolin-7-one] was tested, and the Ki was > 10 nM. For CC1c2c(ccc3[nH]c(=O)cc(Cl)c23)N(CC(F)(F)F)C1c1ccc(C(F)(F)F)cc1 (racemic) [Compound 147, (±)-9-Chloro-1-methyl-2-(4-trifluoromethyl-phenyl)-3-(2,2,2-trifluoroethyl)-1,2,3,6-tetrahydro-pyrrolo[3,2-f]quinolin-7-one], the Ki was > 10 nM. Cc1c(C)n(CCc2cccs2)c2ccc3[nH]c(=O)cc(Cl)c3c12 [Compound 189, 9-Chloro-1,2-dimethyl-3-(2-thien-2-yl-ethyl)-3,6-dihydro-pyrrolo[3,2-f]quinolin-7-one] was tested, and the Ki was > 10 nM. For Cc1c(-c2ccco2)n(C[C@H](O)C(F)(F)F)c2ccc3[nH]c(=O)cc(Cl)c3c12 [Compound 277, (S)-9-Chloro-2-(2-furyl)-1-methyl-3-(3,3,3-trifluoro-2-hydroxy-propyl)-3,6-dihydro-pyrrolo[3,2-f]quinolin-7-one], the Ki was < 5 nM. For Cc1c(-c2ccccc2)n(C[C@@H](O)C(F)(F)F)c2ccc3[nH]c(=O)cc(Cl)c3c12 [Compound 280, 9-Chloro-1-methyl-2-phenyl-3-(3,3,3-trifluoro-2-hydroxy-propyl)-3,6-dihydro-pyrrolo[3,2-f]quinolin-7-one], the Ki was > 10 nM. CCc1c(-c2cccs2)n(CC(F)(F)F)c2ccc3[nH]c(=O)cc(Cl)c3c12 [Compound 209, 9-Chloro-1-ethyl-2-thien-2-yl-3-(2,2,2-trifluoroethyl)-3,6-dihydro-pyrrolo[3,2-f]quinolin-7-one] was tested, and the Ki was < 5 nM. For Cc1c(C)n(CC(F)(F)F)c2cc(F)c3[nH]c(=O)cc(Cl)c3c12 [Compound 195, 9-Chloro-1,2-dimethyl-5-fluoro-3-(2,2,2-trifluoroethyl)-3,6-dihydro-pyrrolo[3,2-f]quinolin-7-one], the Ki was < 5 nM. In the case of Cc1c(CCCI)c2c3c(Cl)cc(=O)[nH]c3ccc2n1CC(F)(F)C(F)(F)F [Compound 270, 9-Chloro-1-(3-iodopropyl)-2-methyl-3-(2,2,3,3,3-pentafluoropropyl)-3,6-dihydro-pyrrolo[3,2-f]quinolin-7-one], the Ki is reported as > 10 nM. For CCC1c2c(ccc3[nH]c(=O)cc(Cl)c23)N(CC(F)(F)F)C1c1ccccc1 (racemic) [Compound 160, (±)-9-Chloro-1-ethyl-2-phenyl-3-(2,2,2-trifluoroethyl)-1,2,3,6-tetrahydro-pyrrolo[3,2-f]-quinolin-7-one], the Ki was > 10 nM. For Cc1[nH]c2ccc3[nH]c(=O)cc(Cl)c3c2c1C [Compound 105, 9-Chloro-1,2-dimethyl-3,6-dihydro-pyrrolo[3,2-f]quinolin-7-one], the Ki was < 5 nM. For O=c1cc(Cl)c2c3c(ccc2[nH]1)N(CC(F)(F)F)[C@H]1CCC[C@@H]31 [Compound 163, (−)-9-Chloro-3-(2,2,2-trifluoroethyl)-1,2-trimethylene-1,2,3,6-tetrahydropyrrolo[3,2-f]-quinolin-7-one], the Ki was > 10 nM. With COc1ccc(-c2c(C)c3c4c(Cl)cc(=O)[nH]c4ccc3n2CC(F)(F)F)cc1 [Compound 197, 9-Chloro-2-(4-methoxyphenyl)-1-methyl-3-(2,2,2-trifluoroethyl)-3,6-dihydro-pyrrolo[3,2-f]-quinolin-7-one] the Ki was < 5 nM. In the case of CCc1c(C)c2c3c(C(F)(F)F)cc(=O)[nH]c3ccc2n1CC(F)(F)Cl [Compound 224, 3-(2-Chloro-2,2-difluoroethyl)-2-ethyl-1-methyl-9-trifluoromethyl-3,6-dihydro-pyrrolo[3,2-f]-quinolin-7-one], the Ki is reported as < 5 nM. With Cc1c(C)n(C[C@@H](O)C(F)(F)F)c2ccc3[nH]c(=O)cc(Cl)c3c12 [Compound 278, (R)-9-Chloro-1,2-dimethyl-3-(3,3,3-trifluoro-2-hydroxy-propyl)-3,6-dihydro-pyrrolo[3,2-f]-quinolin-7-one] the Ki was < 5 nM.

Same assay, conditions: competition with 1 nM 3H-DHT, transfected COS-1 cells, 3 h at 37° C., Cheng-Prusoff from IC50; read-out: Ki
With CC1c2c(ccc3[nH]c(=O)cc(Cl)c23)NC1c1ccccc1 (racemic) [Compound 172, (±)-9-Chloro-1-methyl-2-phenyl-1,2,3,6-tetrahydro-pyrrolo[3,2-f]quinolin-7-one] the Ki was > 10 nM. For Cc1c(-c2ccc(Cl)cc2)n(CC(F)(F)F)c2ccc3[nH]c(=O)cc(Cl)c3c12 [Compound 206, 9-Chloro-2(4-chlorophenyl)-1-methyl-3-(2,2,2-trifluoroethyl)-3,6-dihydro-pyrrolo[3,2-f]quinolin-7-one], the Ki was > 10 nM.
